Measurements as given in paper PMC10825133, “Repurposing proteasome inhibitors for improved treatment of triple-negative breast cancer” (Cell Death Discovery, 2024).
Where two headings read alike, the source gives them in different places.

Legend:
MDA-MB-453 cells = experiment: Resazurin-based cell viability assay, monotherapy drug screen; design: species or system human; AUC: scale not given here; conditions: for AUC: area under the dose response curve, 24 h; for GRmax: drug efficacy at highest tested dose (<0 cytotoxic, 0 cytostatic, >0 partial growth inhibition)
In short: (§1)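 Cells were seeded at the highest density (tested 1000-16000 cells/well) giving linear growth between days 1 and 3, keeping them in exponential phase over the ~52 h experiment. Viability was read after 4 h at 37 °C with 0.2 mg/ml resazurin added at 10% of medium volume; ex 560/em 615 nm.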

MDA-MB-436 cells = experiment: as above; design: species or system human; AUC: scale not given here; conditions: for AUC: area under the dose response curve, 24 h; for GRmax: drug efficacy at highest tested dose (<0 cytotoxic, 0 cytostatic, >0 partial growth inhibition)
In short: as §1

HCC38 cells = experiment: Combination therapy, resazurin viability, SynergyFinder; format: cell-based, human
Experimental: (§2) Eighteen pharmaceutical compounds were purchased from Selleckchem (Supplementary Table 2). Stock solutions were prepared using dimethyl sulfoxide (DMSO; Merck), physiological saline (sodium chloride 0.9%) or Milli-Q water, and stored at −80 °C. […] Matched concentration solvent vehicle controls were used for each drug concentration. The drug screens were performed in triplicate and repeated three (monotherapy) or two (combination therapy) times (Fig. 7).
(§3) The optimal seeding density per 96-well was determined for each cell line as previously described. The cells were seeded at a density of 4.0 × 10^3 to 7.5 × 10^3 (cell type dependent) in 96-well clear, flat-bottom microplates (Corning Life Sciences, Sigma-Aldrich) in 100 µl complete culture medium (Supplementary Table 1) and cultured for 24 h. Cell viability was determined using the resazurin assay in untreated cells at the time of plating (t = 0) and treated cells after 24 h drug treatment (Fig. 7). Percentage cell viability was calculated as 100% × (absorbance of treated cells – absorbance of background controls) / (absorbance of matched solvent vehicle controls – absorbance of background controls). The area under the curve (AUC), half-maximal inhibitory concentration (IC50), drug potency (GR50), and drug efficacy (GRmax) were determined for each compound using the GRmetrics (version 1.20.0) package in R. The monotherapy data were evaluated with the IDACombo (version 1.0.2) package in R to predict potential drug combinations (Table 1). SynergyFinder (version 3.2.10) package in R was used to identify synergistic drug combinations.
(§4) Eighteen pharmaceutical compounds were purchased from Selleckchem. […] The solubility of the compound was enhanced by pre-heating the solvent (lukewarm), if necessary. […] The stock solutions were stored at -80°C. […] Matched concentration solvent vehicle controls were used for each drug concentration. The drug screens were performed in triplicate and repeated three times for the monotherapies and twice for the combination treatments. The drug(s) and corresponding controls were plated in 96-well PCR plates (VWR) and stored at -20°C (Fig. 6). The drug plates were thawed, centrifuged (3000 rpm for 30s), and acclimatized to RT before the drugs were added to the cells. New drug plates were prepared for each drug screen.
(§5) The cells were seeded at a density of 4.0x10^3 to 7.5x10^3 (cell type-dependent) in 96-well clear, flat-bottom microplates (Corning Life Sciences, Sigma-Aldrich) in 100 µl culture medium supplemented with 10% FBS and cultured for 24h. Cell viability was determined using the resazurin assay after 24h drug treatment (Fig. 6). Percentage cell viability was calculated as 100% × (absorbance of treated cells – absorbance of background controls) / (absorbance of matched solvent vehicle controls – absorbance of background controls). Normalized growth rate inhibition (GR) was assessed using the absorbance of untreated cells after the time of plating (t = 0). […] For combination treatment, the monotherapy data were evaluated with the IDACombo (version 1.0.2)[20] package in R to predict potential drug combinations (Table 1). SynergyFinder (version 3.2.10)[21] package in R was used to identify synergistic drug combinations.

[1] = test system: eight TNBC cell lines and two controls (MCF-10A and MCF-7); experiment: Monotherapy drug screen, all investigated cell lines; format: cell-based, human; conditions: for drug potency classification, below the threshold: GR50 and AUC both below the threshold
Experimental: as §2, §3, §4, §5

[2] = test system: control cell lines (MCF-10A and MCF-7); experiment: Monotherapy drug screen, mean across the controls; format: cell-based, human; conditions: for area under the dose response curve (AUC), mean ± SD: 24 h; for IC50: 24 h drug treatment, read-out: GR50 (mean ± SD)
Experimental: as §2, §3, §4, §5

CAL-148 cells = experiment: Combination therapy, resazurin viability, SynergyFinder; format: cell-based, human
Experimental: as §2, §3, §4, §5

[3] = MDA-MB-436, growth rate inhibition concentration at GR(c) = 0.5, 24 h, read-out: GR50 (the source's name)
[4] = metrics GR50 < 1.0 µM and AUC < 0.80
[5] = Homo sapiens, MDA-MB-453, growth rate inhibition concentration at GR(c) = 0.5, 24 h, read-out: GR50 (the source's name)
[6] = Homo sapiens, MDA-MB-436, growth rate inhibition concentration at GR(c) = 0.5, 24 h, read-out: GR50 (the source's name)
[7] = MDA-MB-453, growth rate inhibition concentration at GR(c) = 0.5, 24 h, read-out: GR50 (the source's name)
[8] = MDA-MB-436, 24 h drug treatment, read-out: IC50
[9] = Homo sapiens, MDA-MB-453, 24 h drug treatment, read-out: IC50

Structure (SMILES): N.N.O=C([O-])C1(C(=O)[O-])CCC1.[Pt+2] [Carboplatin]
- AUC (MDA-MB-453 cells; MDA-MB-453): 0.98
- GRmax (MDA-MB-453 cells; MDA-MB-453): 0.79
- AUC (MDA-MB-436 cells; MDA-MB-436): 0.91
- GRmax (MDA-MB-436 cells; MDA-MB-436): 0.41
- IC50 (MDA-MB-436 cells; [3]): 0.87 µM
- Inhibition (%) (HCC38 cells; carboplatin 8 µM alone): −3.64%
- Inhibition (%) (HCC38 cells; carboplatin 32 µM alone): −1.55%
- Inhibition (%) (HCC38 cells; carboplatin 128 µM alone): 0.55%
- Inhibition (%) (HCC38 cells; carboplatin 512 µM alone): 11.55%

Structure (SMILES): CC(C)C[C@H](NC(=O)[C@H](CCc1ccccc1)NC(=O)CN1CCOCC1)C(=O)N[C@@H](Cc1ccccc1)C(=O)N[C@@H](CC(C)C)C(=O)[C@@]1(C)CO1 [Carfilzomib]
- drug potency classification, below the threshold [1]: highly potent drugs
- drug potency classification [1, 4]: potent drugs
- IC50 (MDA-MB-453 cells; [5]): 0.22 µM
- AUC (MDA-MB-453 cells; MDA-MB-453): 0.77
- IC50 (MDA-MB-436 cells; [6]): 0.0018 µM
- AUC (MDA-MB-436 cells; MDA-MB-436): 0.73
- GRmax (MDA-MB-436 cells; MDA-MB-436): −0.89

Structure (SMILES): CC1=C(O)C(=O)C=C2C1=CC=C1[C@@]2(C)CC[C@@]2(C)[C@@H]3C[C@](C)(C(=O)O)CC[C@]3(C)CC[C@]12C [Celastrol]
- IC50 (MDA-MB-453 cells; Homo sapiens, MDA-MB-453, 24 h): 3.7 µM
- IC50 (MDA-MB-453 cells; Homo sapiens, MDA-MB-453, 24 h, read-out: GR50 (µM)): 3.4 µM
- AUC (MDA-MB-453 cells; MDA-MB-453): 0.87
- IC50 (MDA-MB-436 cells; Homo sapiens, MDA-MB-436, 24 h): 3.2 µM
- IC50 (MDA-MB-436 cells; Homo sapiens, MDA-MB-436, 24 h, read-out: GR50 (µM)): 2.4 µM
- AUC (MDA-MB-436 cells; MDA-MB-436): 0.85
- GRmax (MDA-MB-436 cells; MDA-MB-436): −0.63

Structure (SMILES): N.N.[Cl][Pt][Cl] [Cisplatin]
- drug potency classification [1, 4]: potent drugs
- IC50 (MDA-MB-453 cells; MDA-MB-453, 24 h drug treatment, read-out: IC50): 0.24 µM
- AUC (MDA-MB-453 cells; MDA-MB-453): 0.75
- GRmax (MDA-MB-453 cells; MDA-MB-453): 0.25
- IC50 (MDA-MB-453 cells; [7]): 0.095 µM
- IC50 (MDA-MB-436 cells; [8]): 0.064 µM
- AUC (MDA-MB-436 cells; MDA-MB-436): 0.62
- GRmax (MDA-MB-436 cells; MDA-MB-436): 0.17
- IC50 (MDA-MB-436 cells; [3]): 0.043 µM
- area under the dose response curve (AUC), mean ± SD [2]: 0.54 ± 0.12

Structure (SMILES): CC(=O)O[C@@]12CO[C@@H]1C[C@H](O)[C@@]1(C)C(=O)[C@H](O)C3=C(C)[C@@H](OC(=O)[C@H](O)[C@@H](NC(=O)OC(C)(C)C)c4ccccc4)C[C@@](O)([C@@H](OC(=O)c4ccccc4)[C@H]21)C3(C)C [Docetaxel]
- drug potency classification, below the threshold [1]: highly potent drugs
- drug potency classification [1, 4]: potent drugs
- AUC (MDA-MB-453 cells; MDA-MB-453): 0.87
- IC50 (MDA-MB-436 cells; [6]): 0.005 µM
- AUC (MDA-MB-436 cells; MDA-MB-436): 0.69
- GRmax (MDA-MB-436 cells; MDA-MB-436): −0.81
- IC50 ([2]; Homo sapiens): 7.8 ± 1.3 nM

Structure (SMILES): COc1cccc2c1C(=O)c1c(O)c3c(c(O)c1C2=O)C[C@@](O)(C(=O)CO)C[C@@H]3O[C@H]1C[C@H](N)[C@H](O)[C@H](C)O1 [Doxorubicin]
- IC50 (MDA-MB-453 cells; [9]): 8.1 µM
- IC50 (MDA-MB-453 cells; [5]): 4.6 µM
- AUC (MDA-MB-453 cells; MDA-MB-453): 0.88
- IC50 (MDA-MB-436 cells; Homo sapiens, MDA-MB-436, 24 h drug treatment, read-out: IC50): 9.7 µM
- IC50 (MDA-MB-436 cells; [6]): 3.4 µM
- AUC (MDA-MB-436 cells; MDA-MB-436): 0.85
- GRmax (MDA-MB-436 cells; MDA-MB-436): 0.26

Structure (SMILES): COc1cccc2c1C(=O)c1c(O)c3c(c(O)c1C2=O)C[C@@](O)(C(=O)CO)C[C@@H]3O[C@H]1C[C@H](N)[C@@H](O)[C@H](C)O1 [Epirubicin]
- IC50 (MDA-MB-453 cells; [9]): 5.3 µM
- IC50 (MDA-MB-453 cells; [5]): 3.2 µM
- AUC (MDA-MB-453 cells; MDA-MB-453): 0.90
- IC50 (MDA-MB-436 cells; [6]): 3.6 µM
- AUC (MDA-MB-436 cells; MDA-MB-436): 0.84
- GRmax (MDA-MB-436 cells; MDA-MB-436): 0.26

Structure (SMILES): CC[C@H](C)[C@H](NC(=O)[C@H]([C@@H](C)CC)N(C)C(C)=O)C(=O)N[C@H](C(=O)N[C@@H](CC(C)C)C(=O)[C@@]1(C)CO1)[C@@H](C)O [Epoxomicin]
- drug potency classification [1]: potent drugs
- drug potency classification, below the threshold [1]: highly potent drugs
- AUC (MDA-MB-453 cells; MDA-MB-453): 0.70
- GRmax (MDA-MB-453 cells; MDA-MB-453): 0.32
- IC50 (MDA-MB-453 cells; [7]): 0.015 µM
- AUC (MDA-MB-436 cells; MDA-MB-436): 0.77
- GRmax (MDA-MB-436 cells; MDA-MB-436): 0.37
- IC50 (MDA-MB-436 cells; [3]): 0.32 µM
- area under the dose response curve (AUC), mean ± SD [2]: 0.66 ± 0.080
- IC50 [2]: 85 ± 10 nM

Structure (SMILES): [NH2][Pt]1([NH2])[O]CC(=O)[O]1 [Nedaplatin]
- drug potency classification [1, 4]: potent drugs
- AUC (MDA-MB-453 cells; MDA-MB-453): 0.86
- GRmax (MDA-MB-453 cells; MDA-MB-453): 0.34
- IC50 (MDA-MB-453 cells; [7]): 0.41 µM
- IC50 (MDA-MB-436 cells; [8]): 0.23 µM
- AUC (MDA-MB-436 cells; MDA-MB-436): 0.76
- GRmax (MDA-MB-436 cells; MDA-MB-436): 0.22
- IC50 (MDA-MB-436 cells; [3]): 0.13 µM
- area under the dose response curve (AUC), mean ± SD [2]: 0.70 ± 0.13
- Inhibition (%) (CAL-148 cells; nedaplatin 8 µM alone): −9.21%
- Inhibition (%) (CAL-148 cells; nedaplatin 32 µM alone): 2.14%
- Inhibition (%) (CAL-148 cells; nedaplatin 128 µM alone): 9.01%
- Inhibition (%) (CAL-148 cells; nedaplatin 512 µM alone): 49.72%

Structure (SMILES): COC[C@H](NC(=O)c1cnc(C)s1)C(=O)N[C@@H](COC)C(=O)N[C@@H](Cc1ccccc1)C(=O)[C@@]1(C)CO1 [Oprozomib]
- IC50 (MDA-MB-453 cells; [5]): 3.5 µM
- AUC (MDA-MB-453 cells; MDA-MB-453): 0.84
- IC50 (MDA-MB-436 cells; [6]): 0.075 µM
- AUC (MDA-MB-436 cells; MDA-MB-436): 0.84
- GRmax (MDA-MB-436 cells; MDA-MB-436): −0.93

Structure (SMILES): CC(=O)O[C@H]1C(=O)[C@@]2(C)[C@H]([C@H](OC(=O)c3ccccc3)[C@]3(O)C[C@H](OC(=O)[C@H](O)[C@@H](NC(=O)c4ccccc4)c4ccccc4)C(C)=C1C3(C)C)[C@]1(OC(C)=O)CO[C@@H]1C[C@@H]2O [Paclitaxel]
- AUC (MDA-MB-453 cells; MDA-MB-453): 0.93
- IC50 (MDA-MB-436 cells; [6]): 0.055 µM
- AUC (MDA-MB-436 cells; MDA-MB-436): 0.78
- GRmax (MDA-MB-436 cells; MDA-MB-436): −0.97
- inhibition at 0.01 µM (HCC38 cells; Homo sapiens, paclitaxel 10 nM alone): -0.18%
- inhibition at 0.078 µM (HCC38 cells; Homo sapiens, paclitaxel 78 nM alone): 10.6%
- inhibition at 0.625 µM (HCC38 cells; Homo sapiens, paclitaxel 625 nM alone): 21.1%
- inhibition at 5 µM (HCC38 cells; Homo sapiens, paclitaxel 5000 nM alone): 24.7%
